According to patent publication US6514997B2, “Antipicornaviral compounds and compositions, their pharmaceutical uses, and materials for their synthesis” (Agouron Pharmaceuticals, Inc., priority 1999, dated 2003):

Columns and labels:
[1] = Cytotoxicity (CC50) in mock-infected H1-HeLa cells, XTT dye reduction; assay type: cell-based, human; conditions: human; for CC50 at 1 day: CVB3
Procedure, shortened: (§1)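 XTT dye reduction (formazan, 450/650 nm) in H1-HeLa cells, mock-infected, gave CC50.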

[2] = test system: H1-HeLa cells; test: as above; assay type: cell-based, human
Procedure, shortened: as §1

[3] = test system: Coxsackievirus type A-21 (CAV-21); test: Anticoxsackieviral cell culture assay (XTT, EC50), CAV-21; assay type: cell-based, coxsackievirus A-21 in H1-HeLa cells; conditions: Coxsackievirus, H1-HeLa
Method: Anticoxsackieviral Cell Culture Assay:
Coxsackievirus types A-21 (CAV-21) and B3 (CVB3) were purchased from American Type Culture Collection (ATCC, Rockville, Md.). Virus stocks were propagated and antiviral assays were performed in H1-HeLa cells (ATCC). Cells were grown in minimal essential medium with 10% fetal bovine serum (Life Technologies, Gaithersburg, Md.). The ability of the compounds of this invention to protect cells against either CAV-21 or CVB3 infection was measured by the XTT dye reduction method. This method is described in Weislow et al., J. Natl. Cancer Inst. (1989), vol. 81, 577-586. H1-HeLa cells were infected with CAV-21 or CVB3 at a multiplicity of infection (m.o.i.) of 0.025 or 0.075, respectively, or mock-infected with medium only. H1-HeLa cells were plated at 4×10^4 cells per well in a 96-well plate and incubated with appropriate concentrations of the test compound. One day (CVB3) or two days (CAV-21) later, XTT/PMS was added to test plates and the amount of formazan produced was quantified spectrophotometrically at 450/650 nm. […] The therapeutic index (TI) was calculated by dividing the CC50 by the EC50.

[4] = test system: coxsackievirus B2 (CVB2); test: Antiviral cell culture assay (EC50), coxsackievirus B2; assay type: cell-based; conditions: Enterovirus B
[5] = test system: coxsackievirus B5 (CVB5); test: Antiviral cell culture assay (EC50), coxsackievirus B5; assay type: cell-based; conditions: Enterovirus B
[6] = test system: echovirus 9 (ECHO-9); test: Antiviral cell culture assay (EC50), echovirus 9; assay type: cell-based; conditions: Enterovirus B; ECHO9
[7] = Cytotoxicity (CC50), cell line not stated; assay type: cell-based
[8] = H1-HeLa cells, mock-infected, HRV-14
[9] = mock-infected (uninfected) H1-HeLa cells, CAV-21
[10] = mock-infected (uninfected) H1-HeLa cells

Structure (SMILES) | CC50 at 2 days [1, 8] | CC50 at 2 days [1, 9] | CC50 at 1 day [1, 10] | CC50 ([2]; HRV-1A) | CC50 ([2]; HRV-2) | CC50 ([2]; HRV-3) | CC50 ([2]; HRV-9) | CC50 ([2]; HRV-10) | CC50 ([2]; HRV-11) | CC50 ([2]; HRV-13) | CC50 ([2]; HRV-16) | CC50 ([2]; HRV-19) | CC50 ([2]; HRV-23) | CC50 ([2]; HRV-25) | CC50 ([2]; HRV-39) | CC50 ([2]; HRV-78) | CC50 ([2]; HRV-Hanks) | EC50 [3] | EC50 [4] | EC50 [5] | also measured
C#CC[C@@H](C(=O)N[C@H](/C=C/C(=O)OCc1ccccc1)C[C@@H]1CCNC1=O)n1cccc(NC(=O)c2cc(C)on2)c1=O [Compound 63, trans-(2′S,3′″″S,4S)-4-[2′-(3″-{[1′″-(5″″-Methylisoxazol-3″″-yl)methanoyl]amino}-2′″-oxo-2′″H-pyridin-1′″-yl)pent-4″-ynoylamino]-5-(2′″″-oxopyrrolidin-3′″″-yl)pent-2-enoic Acid Benzyl Ester] | > 10 µM | > 10 µM | > 10 µM | > 10 µM | > 10 µM | > 10 µM | > 10 µM | > 10 µM | > 10 µM | > 10 µM | > 10 µM | > 10 µM | > 10 µM | > 10 µM | > 10 µM | > 10 µM | > 10 µM | 153 nM | 12 nM | 10 nM | EC50 [6]: 2 nM; CC50 ([7]; CVB2): > 10 µM; CC50 ([7]; CVB5): > 10 µM; CC50 ([7]; ECHO9): > 10 µM
CC[C@@H](C(=O)N[C@H](/C=C/C(=O)OCc1ccccc1)C[C@@H]1CCNC1=O)n1cccc(NC(=O)c2cc(C)on2)c1=O [Compound 62, trans-(2′S,3′″″S,4S)-4-[2′-(3″-{[1′″-(5″″-Methylisoxazol-3″″-yl)methanoyl]amino}-2′″oxo-2′″H-pyridin-1′″-yl)butanoylamino]-5-(2′″″-oxopyrrolidin-3′″″-yl)pent-2-enoic Acid Benzyl Ester] | > 10 µM | > 10 µM | > 10 µM | > 10 µM | > 10 µM | > 10 µM | > 10 µM | > 10 µM | > 10 µM | > 10 µM | > 10 µM | > 10 µM | > 10 µM | > 10 µM | > 10 µM | > 10 µM | > 10 µM | 298 nM | 16 nM | 20 nM | EC50 [6]: 4 nM; CC50 ([7]; CVB2): > 10 µM; CC50 ([7]; CVB5): > 10 µM; CC50 ([7]; ECHO9): > 10 µM
